Results as given in US9518078B2, “Disaccharide synthetic lipid compounds and uses thereof” (AVANTI POLAR LIPIDS, INC., priority 2012, dated 2016).
Several values for one entry are separate records, joined by “and”; a condition that tells them apart may be missing. Equal values may be shown once.

Key:
[1] = system: murine parental cell line (mTLR); assay: Negative control: murine parental HEK-293 cell line transfected only with the reporter gene; assay type: cell-based, mouse; conditions: parental HEK-293, 18 h
Procedure: (§1) HEK-293 cell lines engineered to functionally over-express human or murine TLR-4 receptor were utilized in the experiments below. These cells also contain a reporter gene (a secreted alkaline phosphatase) under the control of a NFκB inducible promoter. TLR-4 activation results are given as optical density (OD) values after 18 hours stimulation of the designated HEK-293 cell lines.
(§2) Samples and controls are tested in duplicate on recombinant HEK-293 cell lines. The negative controls for the assay were the parental HEK-293 cell lines transfected only with the reporter gene. Negative control cells were stimulated with TNF-α, an inducer of NFκB activity. The positive controls for the assay were HEK-293 cells transfected with human TLR-4 (hTLR-4) or mouse TLR-4 (mTLR-4) along with the reporter construct and activated with LPS 0111 (obtained from E. coli 0111:B4 strain) from 100 ng/ml to 0.01 ng/ml or with LPS K12 (obtained from E. coli K12 strain) from 100 ng/ml to 0.01 ng/ml.
(§3) Another synthetic disaccharide lipid compound used in this assay in an independent experiment was the compound of the structure X (referred to herein as MPLA-D). […] Test compounds were used at the following concentrations: 5.71 μM/570 nM/171 nM/57 nM/17 nM/5.7 nM/well to stimulate in duplicate mTLR4 expressing cell lines.
as §3, with “experiment,” for “experiment”, “XV” for “X”, “MPLA-C).” for “MPLA-D).”, “5.7” for “5.71”, “duplicate hTLR4 and” for “duplicate”

[2] = biological target: T1, human TLR-4 receptor (Homo sapiens, UniProt O00206+Q9Y6Y9); assay: NFκB-inducible secreted alkaline phosphatase reporter in HEK-293 cells over-expressing human TLR-4; assay type: cell-based; conditions: hTLR-4 HEK-293, 18 h
T1 construct: expressed in transfected cells; host or cells: HEK-293
Procedure: as §1, §2
as §3, with “experiment,” for “experiment”, “XV” for “X”, “MPLA-C).” for “MPLA-D).”, “5.7” for “5.71”, “duplicate hTLR4 and” for “duplicate”

T1 sequence (O00206 24-839): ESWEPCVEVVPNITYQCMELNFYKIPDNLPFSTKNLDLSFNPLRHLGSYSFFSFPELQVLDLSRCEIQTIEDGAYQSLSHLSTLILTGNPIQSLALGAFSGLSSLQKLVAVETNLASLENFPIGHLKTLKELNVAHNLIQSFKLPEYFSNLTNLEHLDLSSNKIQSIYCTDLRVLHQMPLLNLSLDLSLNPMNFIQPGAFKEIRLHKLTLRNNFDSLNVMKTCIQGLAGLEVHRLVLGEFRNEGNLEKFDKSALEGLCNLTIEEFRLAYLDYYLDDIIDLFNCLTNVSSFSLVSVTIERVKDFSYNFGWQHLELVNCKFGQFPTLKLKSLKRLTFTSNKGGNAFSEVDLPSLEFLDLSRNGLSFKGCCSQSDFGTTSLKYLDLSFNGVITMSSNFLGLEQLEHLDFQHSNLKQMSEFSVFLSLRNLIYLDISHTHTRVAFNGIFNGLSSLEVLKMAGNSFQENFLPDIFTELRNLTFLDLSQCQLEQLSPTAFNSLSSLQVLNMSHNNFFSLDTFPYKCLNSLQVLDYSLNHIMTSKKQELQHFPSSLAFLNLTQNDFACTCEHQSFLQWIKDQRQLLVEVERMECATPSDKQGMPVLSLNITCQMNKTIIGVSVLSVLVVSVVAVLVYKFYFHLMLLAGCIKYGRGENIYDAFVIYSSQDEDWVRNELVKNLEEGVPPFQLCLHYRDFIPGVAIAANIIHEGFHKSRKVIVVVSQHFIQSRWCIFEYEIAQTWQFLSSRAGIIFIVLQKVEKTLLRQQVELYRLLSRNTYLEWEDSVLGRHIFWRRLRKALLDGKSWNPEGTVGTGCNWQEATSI
T1 sequence (Q9Y6Y9 17-160 limits assumed): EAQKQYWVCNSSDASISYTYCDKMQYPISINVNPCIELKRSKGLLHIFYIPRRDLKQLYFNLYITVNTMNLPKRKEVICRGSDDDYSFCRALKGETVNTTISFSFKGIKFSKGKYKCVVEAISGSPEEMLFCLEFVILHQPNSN

Substance: TNF-α
- NFκB reporter, optical density (OD), negative control cells ([1]; 0.3 ng/ml): 0.035 OD and 0.025 OD and 0.027 OD
- NFκB reporter, optical density (OD), negative control cells ([1]; 3 ng/ml): 0.033 OD and 0.027 OD and 0.024 OD
- NFκB reporter, optical density (OD), negative control cells ([1]; 30 ng/ml): 3.586 OD and 3.502 OD and 3.663 OD
- TLR-4 activation, optical density (OD) ([2]; 0.1 ng/ml): 0.275 OD
- TLR-4 activation, optical density (OD) ([2]; 0.3 ng/ml): 0.577 OD
- TLR-4 activation, optical density (OD) ([2]; 1 ng/ml): 0.899 OD
- TLR-4 activation, optical density (OD) ([2]; 3 ng/ml): 1.135 OD
- TLR-4 activation, optical density (OD) ([2]; 10 ng/ml): 1.262 OD
- TLR-4 activation, optical density (OD) ([2]; 30 ng/ml): 1.387 OD
